In brackets after ≈: the same amount, converted by molar mass. Like-named read-outs stand apart in the source and are kept apart here. *1 amine or outer side, *2 acyl side, *3 side chain or, on linkers, in order; H or OH if unused. Where a SMILES comes first, the peptide text is derived from it. [ ]: non-standard residue; d: D form. The star is where a group is joined. X3 = O=C(N[C@H]1C[C@@H](C(=O)[*:2])N([*:1])C1)C1CCCCC1; X2 = CCCCCCCC(=O)N[C@H]1C[C@@H](C(=O)[*:2])N([*:1])C1; Phenylacetyl(4-Ph) = O=C(Cc1ccc(-c2ccccc2)cc1)*; X4 = O=C([C@@H]1C[C@H](N[*:3])CN1[*:1])[*:2]; Diphenylacetyl = O=C(C(c1ccccc1)c1ccccc1)*; Bip = N[C@@H](Cc1ccc(-c2ccccc2)cc1)C(=O)O; Cha = N[C@@H](CC1CCCCC1)C(=O)O; Nle = CCCC[C@H](N)C(=O)O; Orn = NCCC[C@H](N)C(=O)O; Bn = c1ccc(C*)cc1
What was measured:
[1] = test system: Candida albicans
Experimental: (§1) Lyophilized peptides were weighed on a Microbalance (Mettler MT5) and dissolved in sterile water containing 0.01% acetic acid Tachyplesin was purchased from Bachem Ltd. (Bubendorf Switzerland).
(§2) The antimicrobial activities of the peptides were determined by the standard NCCLS broth microdilution method (see ref 1, below) examined in sterile 96-wells plates (Nunclon polystyrene microtiter plates) in a total volume of 100 μl. […] 10^6 colony forming units (CFU)/ml for bacteria or 5×10^3 CFU/ml for Candida. Aliquots (50 μl) of the innocula were added to 50 μl of MH broth containing the peptide in serial twofold dilutions. The microorganisms used were Escherichia coli (ATCC 25922), Pseudomnonas aeruginosa (P. aeruginosa) (ATCC 27853), Stahylococcus aureus (ATCC 29213 and ATCC 25923) and Candida albicans. A selected number of peptides were screened for activity against a larger panel of gram-negative strains. These strains were; Escherichia coli ATCC 43827 and clinical isolates of Pseudomonas (P. aeruginosa V07 14482, P. aeruginosa 15288, P. aeruginosa V02 15328 and P. aeruginosa V09 16085) and Acinetobacter (Acinetobacter V04 19905/1, Acinetobacter V12 21143/1 and Acinetobacter V12 21193/1).

[2] = test system: Escherichia coli (ATCC 25922)
Experimental: as §1, §2

[3] = test system: Staphylococcus aureus ATCC 25923
Experimental: as §1, §2

[4] = test system: Staphylococcus aureus ATCC 29213
Experimental: as §1, §2

[5] = test system: human red blood cells (hRBC); assay: Hemolysis of human red blood cells at 100 μg/ml peptide; details: 100 μg/ml of peptide, 20% v/v hRBC, 1 hour at 37° C.
Experimental: Hemolysis of red blood cells is often employed for assessment of toxicity of related compounds such as protegrin or tachyplesin. Values are given as %-lysis of red blood cells observed at a concentration of 100 μg/ml.
The peptides were tested for their hemolytic activity against human red blood cells (hRBC). Fresh hRBC were washed three times with phosphate buffered saline (PBS) by centrifugation for 10 min at 2000×g. Peptides at a concentration of 100 μg/ml were incubated with 20% v/v hRBC for 1 hour at 37° C. The final erythrocyte concentration was appr. 0.9×10^9/ml. A value of 0% resp. 100% cell lysis was determined by incubation of the hRBC in the presence of PBS alone and resp. 0.1% Triton X-100 in H2O. The samples were centrifuged and the supernatant was 20 fold diluted in PBS buffer and the optical density (OD) of the sample at […] was measured. […] Percent hemolysis was calculated as follows: (OD540peptide/OD540H2O)×100%.

[6] = test system: gram-positive and gram-negative bacteria; details: background statement; cited from earlier work
[7] = test system: human red blood cells; details: cited from earlier work

| Molecule | MIC Candida albicans [1] [µg/mL] | MIC Escherichia coli ATCC 25922 ([2]; ATCC 25922) [µg/mL] | MIC Staphylococcus aureus ATCC 25923 ([3]; ATCC 25923) [µg/mL] | MIC Staphylococcus aureus ATCC 29213 ([4]; ATCC 29213) [µg/mL] | also measured |
| --- | --- | --- | --- | --- | --- |
| CCCC[C@@H]1NC(=O)[C@H](CCCCN)NC(=O)[C@H](Cc2c[nH]c3ccccc23)NC(=O)[C@H](CCCNC(=N)N)NC(=O)[C@H](CCCNC(=N)N)NC(=O)[C@H](CCCCN)NC(=O)[C@H](CCCCN)NC(=O)[C@H](CC(C)C)NC(=O)[C@H](CCCNC(=N)N)NC(=O)[C@H](CC(C)C)NC(=O)[C@@H]2CCCN2C(=O)[C@H]2CCCN2C(=O)[C@H](C(C)C)NC(=O)[C@H](CCCNC(=N)N)NC1=O [Example 154] (cyclo(LRLKKRRWK[Nle]RV[dP]P)) | 12.5 (≈ 6.84 µM) | 12.5 (≈ 6.84 µM) | 12.5 (≈ 6.84 µM) | 25 (≈ 13.7 µM) |  |
| CC(C)C[C@@H]1NC(=O)[C@H](CCCNC(=N)N)NC(=O)[C@H](CC(C)C)NC(=O)[C@@H]2CCCN2C(=O)[C@H]2CCCN2C(=O)[C@H](C(C)C)NC(=O)[C@H](CCCNC(=N)N)NC(=O)[C@H]([C@@H](C)OCc2ccccc2)NC(=O)[C@H](CCCCN)NC(=O)[C@H](Cc2c[nH]c3ccccc23)NC(=O)[C@H](CCCNC(=N)N)NC(=O)[C@H](CCCNC(=N)N)NC(=O)[C@H](CCCCN)NC(=O)[C@H](CCCCN)NC1=O [Example 206] (cyclo(LRLKKRRWKT(Bn)RV[dP]P)) | 6.2 (≈ 3.25 µM) | 6.2 (≈ 3.25 µM) | 12.5 (≈ 6.56 µM) | 12.5 (≈ 6.56 µM) |  |
| CC(C)C[C@@H]1NC(=O)[C@H](CCCNC(=N)N)NC(=O)[C@H](CC(C)C)NC(=O)[C@@H]2CCCN2C(=O)[C@H]2CCCN2C(=O)[C@H](C(C)C)NC(=O)[C@H](CCCNC(=N)N)NC(=O)[C@H](Cc2ccc(O)cc2)NC(=O)[C@H](CCCN)NC(=O)[C@H](Cc2c[nH]c3ccccc23)NC(=O)[C@H](CCCNC(=N)N)NC(=O)[C@H](CCCNC(=N)N)NC(=O)[C@H](CCCCN)NC(=O)[C@H](CCCCN)NC1=O [Example 217] (cyclo(LRLKKRRW[Orn]YRV[dP]P)) | 12.5 (≈ 6.7 µM) | 18.8 (≈ 10.1 µM) | 25 (≈ 13.4 µM) | 12.5 (≈ 6.7 µM) |  |
| CC(C)C[C@@H]1NC(=O)[C@H](Cc2c[nH]c3ccccc23)NC(=O)[C@H](CC(C)C)NC(=O)[C@@H]2CCCN2C(=O)[C@H]2CCCN2C(=O)[C@H](C(C)C)NC(=O)[C@H](CCCNC(=N)N)NC(=O)[C@H](Cc2ccc(O)cc2)NC(=O)[C@H](CCCNC(=N)N)NC(=O)[C@H](Cc2ccc(-c3ccccc3)cc2)NC(=O)[C@H](CCCNC(=N)N)NC(=O)[C@H](CCCNC(=N)N)NC(=O)[C@H](CCCCN)NC(=O)[C@H](CCCCN)NC1=O [Example 232] (cyclo(LWLKKRR[Bip]RYRV[dP]P)) |  |  |  |  | MIC Candida albicans ([1]; Table 8, Mueller-Hinton broth): 9.4 µg/mL (≈ 4.76 µM); MIC Escherichia coli ATCC 25922 ([2]; Table 8, Mueller-Hinton broth): 6.2 µg/mL (≈ 3.14 µM); MIC Staphylococcus aureus ATCC 25923 ([3]; Table 8, Mueller-Hinton broth): 6.2 µg/mL (≈ 3.14 µM); MIC Staphylococcus aureus ATCC 29213 ([4]; Table 8, Mueller-Hinton broth): 9.4 µg/mL (≈ 4.76 µM); Hemolyses hRBC (percentage hemolyses) [5]: 1.5% |
| CC(C)C[C@@H]1NC(=O)[C@H](CCCNC(=N)N)NC(=O)[C@H](CC(C)C)NC(=O)[C@H](CC2CCCCC2)NC(=O)[C@H]2CCCN2C(=O)[C@H](C(C)C)NC(=O)[C@H](CCCNC(=N)N)NC(=O)[C@H](Cc2ccc(O)cc2)NC(=O)[C@H](CCCCN)NC(=O)[C@H](Cc2c[nH]c3ccccc23)NC(=O)[C@H](CCCNC(=N)N)NC(=O)[C@H](CCCNC(=N)N)NC(=O)[C@H](CCCCN)NC(=O)[C@H](CCCCN)NC1=O [Example 254] (cyclo([Cha]LRLKKRRWKYRV[dP])) | 12.5 (≈ 6.46 µM) | 12.5 (≈ 6.46 µM) | 12.5 (≈ 6.46 µM) | 6.2 (≈ 3.21 µM) |  |
| CCCCCCCC(=O)N[C@H]1C[C@H]2C(=O)N[C@@H](CC(C)C)C(=O)N[C@@H](CCCNC(=N)N)C(=O)N[C@@H](CC(C)C)C(=O)N[C@@H](CCCCN)C(=O)N[C@@H](CCCCN)C(=O)N[C@@H](CCCNC(=N)N)C(=O)N[C@@H](CCCNC(=N)N)C(=O)N[C@@H](Cc3c[nH]c4ccccc34)C(=O)N[C@@H](CCCCN)C(=O)N[C@@H](Cc3ccc(O)cc3)C(=O)N[C@@H](CCCNC(=N)N)C(=O)N[C@@H](C(C)C)C(=O)N3CCC[C@@H]3C(=O)N2C1 [Example 257] (cyclo(KKRRWKYRV[dP][X2]LRL)) | 25 (≈ 12.4 µM) | 6.2 (≈ 3.07 µM) | 6.2 (≈ 3.07 µM) | 6.2 (≈ 3.07 µM) |  |
| CC(C)C[C@@H]1NC(=O)[C@H](CCCNC(=N)N)NC(=O)[C@H](CC(C)C)NC(=O)[C@@H]2C[C@H](NC(=O)Cc3ccc(-c4ccccc4)cc3)CN2C(=O)[C@H]2CCCN2C(=O)[C@H](C(C)C)NC(=O)[C@H](CCCNC(=N)N)NC(=O)[C@H](Cc2ccc(O)cc2)NC(=O)[C@H](CCCCN)NC(=O)[C@H](Cc2c[nH]c3ccccc23)NC(=O)[C@H](CCCNC(=N)N)NC(=O)[C@H](CCCNC(=N)N)NC(=O)[C@H](CCCCN)NC(=O)[C@H](CCCCN)NC1=O [Example 258] (cyclo(KKRRWKYRV[dP][X4](Phenylacetyl(4-Ph))LRL)) |  |  |  |  | MIC Candida albicans ([1]; Table 8, Mueller-Hinton broth): 12.5 µg/mL (≈ 5.99 µM); MIC Escherichia coli ATCC 25922 ([2]; Table 8, Mueller-Hinton broth): 6.2 µg/mL (≈ 2.97 µM); MIC Staphylococcus aureus ATCC 25923 ([3]; Table 8, Mueller-Hinton broth): 6.2 µg/mL (≈ 2.97 µM); MIC Staphylococcus aureus ATCC 29213 ([4]; Table 8, Mueller-Hinton broth): 6.2 µg/mL (≈ 2.97 µM); Hemolyses hRBC (percentage hemolyses) [5]: 23.6% |
| CC(C)C[C@@H]1NC(=O)[C@H](CCCNC(=N)N)NC(=O)[C@H](CC(C)C)NC(=O)[C@@H]2C[C@H](NC(=O)C(c3ccccc3)c3ccccc3)CN2C(=O)[C@H]2CCCN2C(=O)[C@H](C(C)C)NC(=O)[C@H](CCCNC(=N)N)NC(=O)[C@H](Cc2ccc(O)cc2)NC(=O)[C@H](CCCCN)NC(=O)[C@H](Cc2c[nH]c3ccccc23)NC(=O)[C@H](CCCNC(=N)N)NC(=O)[C@H](CCCNC(=N)N)NC(=O)[C@H](CCCCN)NC(=O)[C@H](CCCCN)NC1=O [Example 259] (cyclo(KKRRWKYRV[dP][X4](Diphenylacetyl)LRL)) |  |  |  |  | MIC Candida albicans ([1]; Table 8, Mueller-Hinton broth): 12.5 µg/mL (≈ 5.99 µM); MIC Escherichia coli ATCC 25922 ([2]; Table 8, Mueller-Hinton broth): 6.2 µg/mL (≈ 2.97 µM); MIC Staphylococcus aureus ATCC 25923 ([3]; Table 8, Mueller-Hinton broth): 6.2 µg/mL (≈ 2.97 µM); MIC Staphylococcus aureus ATCC 29213 ([4]; Table 8, Mueller-Hinton broth): 6.2 µg/mL (≈ 2.97 µM); Hemolyses hRBC (percentage hemolyses) [5]: 18.0% |
| CC(C)C[C@@H]1NC(=O)[C@H](CCCNC(=N)N)NC(=O)[C@H](CC(C)C)NC(=O)[C@@H]2C[C@H](NC(=O)C3CCCCC3)CN2C(=O)[C@H]2CCCN2C(=O)[C@H](C(C)C)NC(=O)[C@H](CCCNC(=N)N)NC(=O)[C@H](Cc2ccc(O)cc2)NC(=O)[C@H](CCCCN)NC(=O)[C@H](Cc2c[nH]c3ccccc23)NC(=O)[C@H](CCCNC(=N)N)NC(=O)[C@H](CCCNC(=N)N)NC(=O)[C@H](CCCCN)NC(=O)[C@H](CCCCN)NC1=O [Example 267] (cyclo(KKRRWKYRV[dP][X3]LRL)) | 12.5 (≈ 6.24 µM) | 12.5 (≈ 6.24 µM) | 12.5 (≈ 6.24 µM) | 6.2 (≈ 3.09 µM) |  |
| CC(C)C[C@H](NC(=O)[C@H](CCCNC(=N)N)NC(=O)CNC(=O)CNC(=O)[C@@H](N)CCCNC(=N)N)C(=O)N[C@H]1CSSC[C@@H](C(=O)N[C@H](C(=O)NCC(=O)N[C@@H](CCCNC(=N)N)C(N)=O)C(C)C)NC(=O)[C@H](C(C)C)NC(=O)[C@@H]2CSSC[C@H](NC(=O)[C@H](Cc3ccc(O)cc3)NC1=O)C(=O)N[C@@H](CCCNC(=N)N)C(=O)N[C@@H](CCCNC(=N)N)C(=O)N[C@@H](CCCNC(=N)N)C(=O)N[C@@H](Cc1ccccc1)C(=O)N2 [protegrin] |  |  |  |  | antimicrobial activity [6]: potent and similar activity; hemolytic activity [7]: high hemolytic activity |
| Gramicidin S |  |  |  |  | antimicrobial activity [6]: potent antimicrobial activity; hemolytic activity ([7]; background statement): high hemolytic activity |
